The values that follow come from patent publication US9062028B2, “Bicyclic nitrogen containing heteroaryl TGR5 receptor modulators” (Bristol-Myers Squibb Company, priority 2011, dated 2015).

Counter-ions that a name gives are not always drawn.

This assay addresses T1, recombinant human TGR5 (Homo sapiens, UniProt Q8TDU6).
T1 construct: expressed in transfected cells
T1 sequence (Q8TDU6 1-330): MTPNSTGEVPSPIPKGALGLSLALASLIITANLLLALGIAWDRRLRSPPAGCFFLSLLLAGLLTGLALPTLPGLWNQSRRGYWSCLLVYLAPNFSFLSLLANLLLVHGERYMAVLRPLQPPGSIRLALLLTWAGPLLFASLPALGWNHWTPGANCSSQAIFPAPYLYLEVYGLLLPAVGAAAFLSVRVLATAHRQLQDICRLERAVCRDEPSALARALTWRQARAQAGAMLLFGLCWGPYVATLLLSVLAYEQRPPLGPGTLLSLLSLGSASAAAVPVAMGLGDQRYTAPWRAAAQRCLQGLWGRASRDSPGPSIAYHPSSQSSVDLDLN
In words: cAMP assay (cAMP accumulation, HTRF) in CHOK1 cells stably expressing TGR5. Type of assay: cell-based. The settings on record: CHOK1 cells stably expressing human TGR5, 30 minutes at RT, 1% DMSO. The procedure, abridged: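 Agonist-induced cAMP accumulation: stable TGR5-CHOK1 cells treated 30 min at RT with compound (1% DMSO) plus 0.1 mM IBMX. HTRF ratio converted to nM cAMP via standard curve; EC50 from four-parameter logistic fit, midpoint between baseline and maximum.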
Take `Cc1cccc(OCCCC(=O)N2CCCc3c(-c4cccc(COC(=O)N[C@@H](Cc5ccc(OP(=O)(O)O)cc5)C(=O)O)c4)cccc32)c1C` [Example 324, (S)-2-((3-(1-(4-(2,3-Dimethylphenoxy)butanoyl)-1,2,3,4-tetrahydroquinolin-5-yl)benzyloxy)carbonylamino)-3-(4-(phosphonooxy)phenyl)propanoic acid]: the half-maximal effective concentration (EC50) came out at 3390 nM.
For `Cc1c(Cl)cccc1OCCCC(=O)N1CCCOc2c(-c3cnn(Cc4cccc(C(=O)NCS(=O)(=O)O)c4)c3)cccc21` [Example 146R, (3-((4-(5-(4-(3-Chloro-2-methylphenoxy)butanoyl)-2,3,4,5-tetrahydrobenzo[b][1,4]oxazepin-9-yl)-1H-pyrazol-1-yl)methyl)benzamido) methanesulfonic acid] the value was 49 nM.
As to `Cc1c(Cl)cccc1OCCCC(=O)N1CCCOc2c(-c3cnn(Cc4c(F)cc(C(=O)NCS(=O)(=O)O)cc4Cl)c3)cccc21` [Example 702, (3-Chloro-4-((4-(5-(4-(3-chloro-2-methylphenoxy)butanoyl)-2,3,4,5-tetrahydrobenzo[b][1,4]oxazepin-9-yl)-1H-pyrazol-1-yl)methyl)-5-fluorobenzamido)methanesulfonic acid], the EC50 was 46 nM.
As for `Cc1cccc(OCCCC(=O)N2CCCc3c(-c4cccc(COC(=O)NCC(C)(C)C(=O)O)c4)cccc32)c1C` [Example 257, 3-((3-(1-(4-(2,3-Dimethylphenoxy)butanoyl)-1,2,3,4-tetrahydroquinolin-5-yl)benzyloxy)carbonylamino)-2,2-dimethylpropanoic acid], the EC50 is 682 nM.
For `Cc1cccc(CCOCC(=O)N2CCCc3c(-c4cnn(Cc5cccc(C(=O)O)c5)c4)cccc32)c1C` [Example 15, 3-((4-(1-(2-(2,3-Dimethylphenethoxy)acetyl)-1,2,3,4-tetrahydroquinolin-5-yl)-1H-pyrazol-1-yl)methyl)benzoic acid] the value was 5900 nM; for `Cc1c(Cl)cccc1OCCOC(=O)N1C[C@@H]2C[C@@H]2c2c(-c3cnn(Cc4cc(OCCOCC(=O)O)ccc4Cl)c3)cccc21` [Example 448, 2-(2-(4-Chloro-3-((4-((1aR,7bS)-3-((2-(3-chloro-2-methylphenoxy)ethoxy)carbonyl)-1a,2,3,7b-tetrahydro-1H-cyclopropa[c]quinolin-7-yl)-1H-pyrazol-1-yl)methyl)phenoxy)ethoxy)acetic acid], 183 nM.
For `Cc1c(Cl)cccc1OCCOC(=O)N1C[C@@H]2C[C@@H]2c2c(-c3cnn(Cc4cc(C(=O)NCS(=O)(=O)O)ccc4Cl)c3)cccc21` [Example 662, (4-Chloro-3-((4-((1aR,7bS)-3-((2-(3-chloro-2-methylphenoxy)ethoxy)carbonyl)-1a,2,3,7b-tetrahydro-1H-cyclopropa[c]quinolin-7-yl)-1H-pyrazol-1-yl)methyl)benzamido) methanesulfonic acid] the value was 36 nM.
As to `Cc1c(Cl)cccc1OCCOC(=O)N1CCSc2c(-c3cnn(Cc4cccc(C(=O)NCCC(=O)O)c4Cl)c3)cccc21` [Example 628, 3-(2-Chloro-3-((4-(4-((2-(3-chloro-2-methylphenoxy)ethoxy)carbonyl)-3,4-dihydro-2H-benzo[b][1,4]thiazin-8-yl)-1H-pyrazol-1-yl)methyl)benzamido)propanoic acid], the concentration giving a half-maximal response (EC50) is 195 nM.
For `Cc1c(Cl)cccc1Oc1cccc(C(=O)N2CCCOc3c(-c4cnn(Cc5c(F)cc(C(=O)NCCC(=O)O)cc5Cl)c4)cccc32)c1` [Example 815] the value was 2000 nM; for `Cc1c(Cl)cccc1OCCCC(=O)N1CCCOc2c(-c3cnn(Cc4c(F)cc(C(=O)NCC[N+](C)(C)C)cc4F)c3)cccc21` [Example 724, 2-(4-((4-(5-(4-(3-Chloro-2-methylphenoxy)butanoyl)-2,3,4,5-tetrahydrobenzo[b][1,4]oxazepin-9-yl)-1H-pyrazol-1-yl)methyl)-3,5-difluorobenzamido)-N,N,N-trimethylethanaminium, TFA salt], 1300 nM.
Take `Cc1cccc(OCCCC(=O)N2CCCc3c(-c4cccc(COC(=O)N(CCCS(=O)(=O)O)C5CC5)c4)cccc32)c1C` [Example 36, 3-(Cyclopropyl((3-(1-(4-(2,3-dimethylphenoxy)butanoyl)-1,2,3,4-tetrahydroquinolin-5-yl)benzyloxy)carbonyl)amino)propane-1-sulfonic acid]: the EC50 was 2910 nM.
The figure for `Cc1cccc(OCCCC(=O)N2CCCc3c(-c4cn(Cc5cccc(C(=O)O)c5)nc4C)cccc32)c1C` [Example 32G, 3-((4-(1-(4-(2,3-Dimethylphenoxy)butanoyl)-1,2,3,4-tetrahydroquinolin-5-yl)-3-methyl-1H-pyrazol-1-yl)methyl)benzoic acid] is 636 nM; for `Cc1cccc(OCCCC(=O)N2CCCc3c(-c4cnn(Cc5cccc(C(=O)N(C)CCS(=O)(=O)O)c5)c4)cccc32)c1C` [Example 829, 2-(3-((4-(1-(4-(2,3-Dimethylphenoxy)butanoyl)-1,2,3,4-tetrahydroquinolin-5-yl)-1H-pyrazol-1-yl)methyl)-N-methylbenzamido)ethanesulfonic acid] it is 1350 nM.
On to `Cc1cccc(OCCCC(=O)N2CC3CC3c3c(-c4cnn(Cc5c(F)cc(C(=O)NCCC[C@H](NC(=N)N)C(=O)O)cc5Cl)c4)cccc32)c1C` (stereo partly drawn) [Example 69F, (2S)-5-(3-Chloro-4-((4-(3-(4-(2,3-dimethylphenoxy)butanoyl)-1a,2,3,7b-tetrahydro-1H-cyclopropa[c]quinolin-7-yl)-1H-pyrazol-1-yl)methyl)-5-fluorobenzamido)-2-guanidinopentanoic acid], for which the EC50 amounted to 54 nM.
Consider `Cc1c(Cl)cccc1OCCOC(=O)N1C[C@@H]2C[C@@H]2c2c(-c3cnn(Cc4ccc(C(=O)O)cc4Cl)c3)cccc21` [Example 436, 3-Chloro-4-((4-((1aR,7bS)-3-((2-(3-chloro-2-methylphenoxy)ethoxy)carbonyl)-1a,2,3,7b-tetrahydro-1H-cyclopropa[c]quinolin-7-yl)-1H-pyrazol-1-yl)methyl)benzoic acid], for which the half-maximal effective concentration (EC50) is 171 nM.
For `Cc1cccc(NCCCC(=O)N2CCCc3c(-c4cnn(Cc5cccc(C(=O)O)c5)c4)cccc32)c1C` [Example 934, 3-((4-(1-(4-(2,3-Dimethylphenylamino)butanoyl)-1,2,3,4-tetrahydroquinolin-5-yl)-1H-pyrazol-1-yl)methyl)benzoic acid, TFA salt] the value was 191 nM.
The figure for `Cc1c(Cl)cccc1OCCCC(=O)N1CCCc2c(-c3cnn(CC(=O)O)c3)cccc21` [Example 197, 2-(4-(1-(4-(3-Chloro-2-methylphenoxy)butanoyl)-1,2,3,4-tetrahydroquinolin-5-yl)-1H-pyrazol-1-yl)acetic acid] is 2150 nM.
The figure for `Cc1cccc(OCCCC(=O)N2CCCOc3c(-c4cnn(Cc5cccc(N(C)C(=O)NCS(=O)(=O)O)c5)c4)cccc32)c1C` [Example 526, (3-(3-((4-(5-(4-(2,3-Dimethylphenoxy)butanoyl)-2,3,4,5-tetrahydrobenzo [b][1,4]oxazepin-9-yl)-1H-pyrazol-1-yl)methyl)phenyl)-3-methylureido) methanesulfonic acid] is 1500 nM; for `Cc1cccc(OCCCC(=O)N2CCCc3c(-c4cccc(COC(=O)NC(CP(=O)(O)O)C(=O)O)c4)cccc32)c1C` (stereo not drawn) [Example 319, 2-((3-(1-(4-(2,3-Dimethylphenoxy)butanoyl)-1,2,3,4-tetrahydroquinolin-5-yl)benzyloxy)carbonylamino)-3-phosphonopropanoic acid] it is 3820 nM.
`COC(=O)c1ccc(Cl)c(Cn2cc(-c3cccc4c3SCCN4C(=O)OCCOc3cccc(Cl)c3C)cn2)c1` [Example 367, 2-(3-Chloro-2-methylphenoxy)ethyl 8-(l-(2-chloro-5-(methoxycarbonyl)benzyl)-1H-pyrazol-4-yl)-2H-benzo[b][1,4]thiazine-4(3H)-carboxylate]: the EC50 came out at 186 nM.
For the molecule `Cc1cccc(OCCCC(=O)N2CCCc3c(-c4cnn(Cc5c(F)cc(C(=O)NCC(=O)O)cc5Cl)c4)cccc32)c1C` [Example 177, 2-(3-Chloro-4-((4-(1-(4-(2,3-dimethylphenoxy)butanoyl)-1,2,3,4-tetrahydroquinolin-5-yl)-1H-pyrazol-1-yl)methyl)-5-fluorobenzamido)acetic acid], the EC50 was 48 nM.
As for `Cc1cccc(OCCCC(=O)N2CCOc3c(-c4cnn(Cc5cccc(S(=O)(=O)N[C@@H](CCC[N+](C)(C)C)C(=O)O)c5)c4)cccc32)c1C` [Example 505, (S)-4-Carboxy-4-(3-((4-(4-(4-(2,3-dimethylphenoxy)butanoyl)-3,4-dihydro-2H-benzo [b][1,4]oxazin-8-yl)-1H-pyrazol-1-yl)methyl)phenyl-sulfonamido)-N,N, N-trimethylbutan-1-aminium, TFA salt], the EC50 was determined as 1730 nM.
The figure for `Cc1cccc(OCCOC(=O)N2CCSc3c(-c4cnn(Cc5cccc(C(=O)NCCS(=O)(=O)O)c5)c4)cccc32)c1C` [Example 597, 2-(3-((4-(4-((2-(2,3-Dimethylphenoxy)ethoxy)carbonyl)-3,4-dihydro-2H-benzo[b][1,4]thiazin-8-yl)-1H-pyrazol-1-yl)methyl)benzamido)ethanesulfonic acid] is 173 nM; for “(R)-5-tert-Butyl 1-methyl 2-(4- chloro-3-((4-((1aR,7bS)-3-((2- (3-chloro-2-methylphenoxy) ethoxy)carbonyl)-1a,2,3,7b- tetrahydro-1H-cyclopropa[c] quinolin-7-yl)-1H-pyrazol-1- yl)methyl)benzamido) pentanedioate [Example 669]” it is 1340 nM.
